Results as given in US20030171406A1, “Medicinal compositions containing propenone derivatives” (priority 2000, published 2003).
Converted amounts (≈) assume the structure as drawn. Read-outs that look alike come from different tables or passages of the source.

Experiments:
Type in all cases: cell-based
HIV-1 NL432 = experiment: Antiviral assay in infected Molt-4 cells, virus measured by RT activity; settings: read-out: EC50 HIV-1 NL432
Method: (§1) (1) Molt-4 cells (2×10^6 cells) were infected with HIV-1 NL432 (4×10^6 cpm), HIV-2 Rod (8×10^6 cpm), SIVmac MA239 (8×10^6 cpm) and SIVagm SA212 (8×10^6 cpm), and incubated for 1 hr at room temperature.
(§2) {circle over (1)} Preparation of HIV-1 virus: SW480 cells were cultured in DMEM medium supplemented with 10% fetal bovine serum using 25 cm^2 flask. HIV-1 infectious molecular DNA (40 μg), pNL432, transfected to the cells by calcium phosphate coprecipitation method, and the supernatant (2 mL) at 2-3 days post-transfection was infected to M8166 cells (1×10^6 cells). The cells were cultured in 10 mL RPMI medium supplemented with 10% fetal bovine serum in CO2 incubator at 37° C. After apparent giant cells were observed, the cells were removed by centrifugation and then the supernatant was filtrated by 0.45 μm filter, measured RT activity, and stored at −80° C. as HIV-1 stock virus.
(§3) {circle over (2)} The cells were washed twice to remove the viruses and suspended in 10 mL RPMI medium supplemented with 10% fetal bovine serum. The infected cells (100 μL) were plated in 96-well microtiter plates containing with the serial 5 fold dilution of compounds (100 μL) and cultured in CO2 incubator at 37° C.
(§4) {circle over (3)} The supernatant at 5 days postinfection was harvested and measured the amount of the virus by RT activity.
(§5) Preparation of the solution for RT assay:
(§6) A reaction mixture (90 μL) were contained 50 mM Tris-HCl, pH 8.3, 150 mM KCl, 10 mM MgCl2, 0.1% Nonidet P-40, 10 mM DTT (dithiothreitol), 5 μg/mL poly(rA), 5 μg/mL (dT)12-18 and 1 μCi [^3H] dTTP at final concentration after mixture of a sample (10 μL).
(§7) The procedure of RT assay:
(§8) 1. 10 μL of sample was plated to 3 wells of 96-well microtiter plate (triplicate assay).
(§9) 2. Reaction mixture (90 μL) chilled at 4° C. was added to each well, mixed and then incubate at 37° C. for 3 hrs.
(§10) 3. After incubation, the plate was chilled on ice, and passed through a DEAE-Filtermat using cell harvester. The filter was washed with 4.5% Na2HPO4 (20 see) and H2O (10 sec).
(§11) 4. The filter was dried at 95° C. for 15 min.
(§12) 5. 10 mL of scintilator was added and sealed.
(§13) 6. Radioactivity was measured by LKB Beta Plate scintillation spectroscopy.
(§14) 7. RT activity (cpm/mL) was calculated from average of three wells.

SIVagm SA212 = experiment: as above; settings: 120 h, RT activity of supernatant at 5 days postinfection
Method: as §1
{circle over (4)} Preparation of SIVagm virus: SW480 cells were cultured in DMEM medium supplemented with 10% fetal bovine serum using 25 cm^2 flask. SIVagm SA212 infectious molecular DNA (40 μg), pSA212, transfected to the cells by calcium phosphate coprecipitation methods, and the supernatant (2 mL) at 2-3 days post-transfection was infected to M8166 cells (1×10^6 cells). The cells were cultured in 10 mL RPMI medium supplemented with 10% fetal bovine serum in CO2 incubator at 37° C. Every 3 days, the cells were separated from the supernatant by centrifugation and continued culture with new culture medium. The each supernatant was filtrated by 0.45 μm filter, measured RT activity, and stored at −80° C. as SIVagm stock virus.
as §3, §4, §5, §6, §7, §8, §9, §10, §11, §12, §13, §14

HIV-2 Rod = experiment: as above; settings: read-out: EC50 HIV-2 ROD
Method: as §1
{circle over (2)} Preparation of HIV-2 virus: HIV-2 Rod was infected to M8166 cells (1×10^6 cells). The cells were cultured in 10 mL RPMI medium supplemented with 10% fetal bovine serum in CO2 incubator at 37° C. After apparent giant cells were observed, the cells were removed by centrifugation and then the supernatant was filtrated by 0.45 μm filter, measured RT activity, and stored at −80° C. as HIV-2 stock virus.
as §3, §4, §5, §6, §7, §8, §9, §10, §11, §12, §13, §14

SIVmac MA239 = experiment: as above; settings: 120 h, RT activity of supernatant at 5 days postinfection
Method: as §1
as §2, with “over (3)}” for “over (1)}”, “of SIVmac” for “of HIV-1”, “flask. SIVmac MA239” for “flask. HIV-1”, “μg), pMA239,” for “μg), pNL432,”, “to CEMX174” for “to M8166”, “as SIVmac” for “as HIV-1”
as §3, §4, §5, §6, §7, §8, §9, §10, §11, §12, §13, §14

HIV (HTLV-IIIB strain) = experiment: MTT assay, MT-4 cells infected with HIV; settings: Human immunodeficiency virus 1, MT4, 120 h, 5 days, inhibits 50% of cell damage caused by virus, read-out: EC50
Method: The inhibitory effects of each anti-human immunodeficiency virus active substance against human immunodeficiency virus have been determined by MTT assay described below.
(1) Human T cell strain Molt-4 clone 8 persistently infected HIV (HTLV-IIIB strain) was cultivated in RPMI-1640 medium supplemented with 10% fatal bovine serum, and supernatant was filtered, measured RT activity, and stored at −80° C. On the other hand, each human anti-immunodeficiency virus active substance was diluted to fixed concentration in culture medium, they were plated to 96-well microtiter plate. Subsequently, 100 μL (3.5×10^4 cells) of MT-4 cell suspension was plated to 96-well microtiter plate, and then above mentioned supernatant containing HIV, which was diluted by culture medium, was added 50 μL (60 pfu (plaque forming unit.)) to 96-well microtiter plate.
(2) After cultivation at 37° C. for 5 days in CO2 incubator, into all well was added 30 μL per well 3-(4,5-[…])-2,5-diphenyltetrazolium bromide (MTT) 5 mg/mL) and PBS, and then incubated for 1 h.
In this time, alive cells reduced MTT and formazan was precipitated, therefore, 150 μL of cell supernatants were removed from all wells, and then 150 μL of lysate (10% triton X-100 and 0.4% (v/v) HCl-containing isopropanol) was added, and formazan was eluated on a plate shaker.

[1] = test system: feline immunodeficiency virus (FIV TM-2 strain); experiment: FIV antiviral assay in MYA-1 feline T cells, RT activity; settings: T-cell, 240 h, FIV TM-2, MYA-1 cells, RT activity at 10 days postinfection
Method: (1) The serial 5 fold diluted samples were plated in 24 well microtiter plate. Feline T-cell lines (MYA-1 cells: 4×10^5 cells/well) and feline immunodeficiency virus (FIV TM-2 strain: 3000 cpm/well) were added to each well. The cells were cultured with 1.5 mL RPMI medium supplemented with 10% fetal bovine serum, 2 μg/mL polybrene, 100 unit/mL human recombinant IL-2 and 50 μM 2-mercaptoethanol in CO2 incubator at 37° C.
{circle over (1)} Preparation of FIV TM-2 virus: FIV TM-2 was infected to MYA-1 cells (1×10^6 cells). The cells were cultured in 10 mL RPMI medium supplemented with 10% fetal bovine serum, 2 μg/mL polybrene, 100 unit/ml human recombinant IL-2 and 50 μM 2-mercaptoethanol in CO2 incubator at 37° C. Every 1-2 days, the cells were separated from the supernatant by centrifugation and continued culture with new culture medium. Each of the supernatant was filtrated by 0.45 μm filter, measured RT activity, and stored at as −80° C. as FIV stock virus.
(2) Every 1-2 days, the supernatants were measured the amount of the virus by RT activity (as same as experimental example 2).

[2] = Human immunodeficiency virus 1, 120 h, Molt-4 cells, RT activity of supernatant at 5 days postinfection
[3] = Human immunodeficiency virus 2, 120 h, Molt-4 cells, RT activity of supernatant at 5 days postinfection

Row | Compound | EC50 (HIV-1 NL432; [2]) | EC50 (SIVagm SA212) | EC50 (HIV-2 Rod; [3]) | EC50 (SIVmac MA239) | EC50 (HIV (HTLV-IIIB strain)) | EC50 [1] | EC50 (HIV-1 NL432; Human immunodeficiency virus 1, MOLT-4, 120 h) | EC50 (HIV-2 Rod; Human immunodeficiency virus 2, MOLT-4, 120 h)
1 | Nc1ccn(C2CSC(CO)O2)c(=O)n1 (single isomer, unassigned; (-)) [Lamivudine, (−)-2′,3+-dideoxy-3′-thiacytidine] | 8.4 ng/mL (≈ 0.0366 µM) | 22 ng/mL (≈ 0.096 µM) | 22 ng/mL (≈ 0.096 µM) | 9.1 ng/mL (≈ 0.0397 µM) | 38 ng/mL |  |  | 
2 | O=C(C=C(O)c1nc[nH]n1)c1ccc(Cc2ccc(F)cc2)o1 [Compound I-16, 1-[5-(4-Fluorobenzyl)furan-2-yl]-3-hydroxy-3-(1H-1,2,4-triazol-3-yl)propenone] | 57 ng/mL (≈ 0.182 µM) | 44 ng/mL (≈ 0.14 µM) | 35 ng/mL (≈ 0.112 µM) | 57 ng/mL (≈ 0.182 µM) |  | 300 ng/mL (≈ 0.958 µM) |  | 
3 | Cc1cn([C@H]2C=C[C@@H](CO)O2)c(=O)[nH]c1=O [Stavudine] |  | 4.5 ng/mL (≈ 0.0201 µM) |  | 3.4 ng/mL (≈ 0.0152 µM) | 50 ng/mL |  | 6.1 ng/mL (≈ 0.0272 µM) | 4.1 ng/mL (≈ 0.0183 µM)
4 | Cc1cn(C2CC(N=[N+]=[N-])C(CO)O2)c(=O)[nH]c1=O (stereo not drawn) [Zidovudine, 3′-azido-3′-deoxycytimidine] | 0.51 ng/mL (≈ 0.00191 µM) | 0.36 ng/mL (≈ 0.00135 µM) | 0.28 ng/mL (≈ 0.00105 µM) | 0.35 ng/mL (≈ 0.00131 µM) | 1.8 ng/mL | 48 ng/mL (≈ 0.18 µM) |  | 
